Experimental findings from patent publication US9951063B2, “8-(piperazin-1-yl)-1,2,3,4-tetrahydro-isoquinoline derivatives” (IDORSIA PHARMACEUTICALS LTD, priority 2014, dated 2018) are described below.

Sequence of human CXCR3A (P49682 whole entry): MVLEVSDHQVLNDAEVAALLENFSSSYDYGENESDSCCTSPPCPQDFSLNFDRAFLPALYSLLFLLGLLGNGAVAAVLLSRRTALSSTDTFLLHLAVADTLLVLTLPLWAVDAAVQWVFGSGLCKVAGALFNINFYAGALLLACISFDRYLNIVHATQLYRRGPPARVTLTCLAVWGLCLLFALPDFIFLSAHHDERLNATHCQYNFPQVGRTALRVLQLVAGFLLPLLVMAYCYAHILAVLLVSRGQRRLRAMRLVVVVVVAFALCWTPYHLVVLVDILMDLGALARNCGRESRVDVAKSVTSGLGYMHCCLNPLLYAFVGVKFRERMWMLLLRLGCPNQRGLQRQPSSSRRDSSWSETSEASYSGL

The target of this experiment is human CXCR3A (Homo sapiens (Human), UniProt P49682). Put plainly: FLIPR assay (inhibition of CXCL10-induced calcium signal). To be noted: engineered CHO-K1 cells expressing human CXCR3A coupled to Galpha(16); Fluo-4-AM; CXCL10 agonist 20 nM; mean values where determined several times. It is filed as cell-based. A digest of the protocol:
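CHO-K1 cells expressing human CXCR3A coupled to Gα16 were loaded with Fluo-4-AM for 1 h in HBSS/20 mM Hepes pH 7.4 with probenecid. Compound was added, then CXCL10 (20 nM as dispensed). Baseline-subtracted peak fluorescence gave inhibition curves and IC50, averaged over repeats.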
`C[C@@H]1CN(c2cccc3c2CN(C(=O)[C@H](C)c2ccccc2)CC3)CCN1C(=O)Cn1cnc2cccnc21` [Example 79, (R)-1-{8-[(R)-4-(2-Imidazo[4,5-b]pyridin-3-yl-acetyl)-3-methyl-piperazin-1-yl]-3,4-dihydro-1H-isoquinolin-2-yl}-2-phenyl-propan-1-one]: the IC50 (as a rule, the concentration needed to halve the response being measured) came to 570 nM.

`C[C@@H]1CN(c2cccc3c2CN(C(=O)c2ccc4ncccc4c2)CC3)CCN1C(=O)Cn1cnc2cccnc21` [Example 85, 2-Imidazo[4,5-b]pyridin-3-yl-1-{(R)-2-methyl-4-[2-(quinoline-6-carbonyl)-1,2,3,4-tetrahydro-isoquinolin-8-yl]-piperazin-1-yl}-ethanone]: the 50% inhibitory concentration (IC50) is 866 nM.

For the compound `CCOc1ncc(N2CCc3c(C(F)(F)F)ccc(N4CCN(C(=O)Cn5cnc6cccnc65)CC4)c3C2)cn1` [Example 28, 1-{4-[2-(2-Ethoxy-pyrimidin-5-yl)-5-trifluoromethyl-1,2,3,4-tetrahydro-isoquinolin-8-yl]-piperazin-1-yl}-2-imidazo[4,5-b]pyridin-3-yl-ethanone], the IC50 was 2.4 nM.

With `C[C@@H]1CN(c2cccc3c2CN(c2ccc(F)cn2)CC3)CCN1C(=O)Cn1cnc2cccnc21` [Example 91, 1-{(R)-4-[2-(5-Fluoro-pyridin-2-yl)-1,2,3,4-tetrahydro-isoquinolin-8-yl]-2-methyl-piperazin-1-yl}-2-imidazo[4,5-b]pyridin-3-yl-ethanone], the IC50 came out at 8.01 nM.

For the compound `C[C@@H]1CN(c2cccc3c2CN(C(=O)C2(c4ccccc4)CC2)CC3)CCN1C(=O)Cn1cnc2cccnc21` [Example 80, 2-Imidazo[4,5-b]pyridin-3-yl-1-{(R)-2-methyl-4-[2-(1-phenyl-cyclopropanecarbonyl)-1,2,3,4-tetrahydro-isoquinolin-8-yl]-piperazin-1-yl}-ethanone], the IC50 came to 199 nM.

Take `Cc1ccnn1CC(=O)N1CCN(c2ccc(C(F)(F)F)c3c2CN(c2nc4ccc(F)cc4s2)CC3)C[C@H]1C` [Example 41, 1-{(R)-4-[2-(6-Fluoro-benzothiazol-2-yl)-5-trifluoromethyl-1,2,3,4-tetrahydro-isoquinolin-8-yl]-2-methyl-piperazin-1-yl}-2-(5-methyl-pyrazol-1-yl)-ethanone]: the half-maximal inhibitory concentration (IC50) was 51.4 nM.

As to `C[C@@H]1CN(c2cccc3c2CN(c2ccccc2)CC3)CCN1C(=O)Cn1cnc2cccnc21` [Example 101, 2-Imidazo[4,5-b]pyridin-3-yl-1-[(R)-2-methyl-4-(2-phenyl-1,2,3,4-tetrahydro-isoquinolin-8-yl)-piperazin-1-yl]-ethanone], the IC50 amounted to 14.7 nM.

On to `C[C@@H]1CN(c2cccc3c2CN(C(=O)c2cccc(N(C)C)c2)CC3)CCN1C(=O)Cn1cnc2cccnc21` [Example 76, 1-{(R)-4-[2-(3-Dimethylamino-benzoyl)-1,2,3,4-tetrahydro-isoquinolin-8-yl]-2-methyl-piperazin-1-yl}-2-imidazo[4,5-b]pyridin-3-yl-ethanone], for which the IC50 was found to be 82.4 nM.

As for `Cc1cc(C)n(CC(=O)N2CCN(c3ccc(C(F)(F)F)c4c3CN(c3nc(C(C)(C)C)cs3)CC4)C[C@H]2C)n1` [Example 4, 1-{(R)-4-[2-(4-tert.-Butyl-thiazol-2-yl)-5-trifluoromethyl-1,2,3,4-tetrahydro-isoquinolin-8-yl]-2-methyl-piperazin-1-yl}-2-(3,5-dimethyl-pyrazol-1-yl)-ethanone], the IC50 amounted to 20.6 nM.

Regarding `Cc1cc(C)n(CC(=O)N2CCN(c3ccc(C(F)(F)F)c4c3CN(c3nc5ccccc5o3)CC4)C[C@H]2C)n1` [Example 12, 1-[(R)-4-(2-Benzooxazol-2-yl-5-trifluoromethyl-1,2,3,4-tetrahydro-isoquinolin-8-yl)-2-methyl-piperazin-1-yl]-2-(3,5-dimethyl-pyrazol-1-yl)-ethanone], the IC50 stood at 9.39 nM.

With `Cc1nc(C)n(CC(=O)N2CCN(c3ccc(F)c4c3CN(c3cnc(C(F)(F)F)nc3)CC4)C[C@H]2C)n1` [Example 132, 2-(3,5-Dimethyl-[1,2,4]triazol-1-yl)-1-{(R)-4-[5-fluoro-2-(2-trifluoromethyl-pyrimidin-5-yl)-1,2,3,4-tetrahydro-isoquinolin-8-yl]-2-methyl-piperazin-1-yl}-ethanone], the IC50 is 58.9 nM.

Turning to `Cc1ccn(CC(=O)N2CCN(c3ccc(C(F)(F)F)c4c3CN(c3nc5ccc(F)cc5s3)CC4)C[C@H]2C)n1` [Example 40, 1-{(R)-4-[2-(6-Fluoro-benzothiazol-2-yl)-5-trifluoromethyl-1,2,3,4-tetrahydro-isoquinolin-8-yl]-2-methyl-piperazin-1-yl}-2-(3-methyl-pyrazol-1-yl)-ethanone], the IC50 was determined as 49 nM.

In the case of `COc1cccc(N2CCc3cccc(N4CCN(C(=O)Cn5cnc6cccnc65)[C@H](C)C4)c3C2)c1` [Example 97, 2-Imidazo[4,5-b]pyridin-3-yl-1-{(R)-4-[2-(3-methoxy-phenyl)-1,2,3,4-tetrahydro-isoquinolin-8-yl]-2-methyl-piperazin-1-yl}-ethanone], the IC50 worked out at 4.38 nM.

As to `C[C@@H]1CN(c2cccc3c2CN(C(=O)C2CCCCC2)CC3)CCN1C(=O)Cn1cnc2cccnc21` [Example 70, 1-[(R)-4-(2-Cyclohexanecarbonyl-1,2,3,4-tetrahydro-isoquinolin-8-yl)-2-methyl-piperazin-1-yl]-2-imidazo[4,5-b]pyridin-3-yl-ethanone], the IC50 worked out at 55.5 nM.

`Cc1cc(C)n(CC(=O)N2CCN(c3ccc(C(F)(F)F)c4c3CN(c3ncc(C#N)s3)CC4)C[C@H]2C)n1` [Example 8, 2-(8-{(R)-4-[2-(3,5-Dimethyl-pyrazol-1-yl)-acetyl]-3-methyl-piperazin-1-yl}-5-trifluoromethyl-3,4-dihydro-1H-isoquinolin-2-yl)-thiazole-5-carbonitrile]: the IC50 was 8.88 nM.

`CCOc1ncc(N2CCc3c(F)ccc(N4CCN(C(=O)Cn5nc(C)cc5C)[C@H](C)C4)c3C2)cn1` [Example 130, 2-(3,5-Dimethyl-pyrazol-1-yl)-1-{(R)-4-[2-(2-ethoxy-pyrimidin-5-yl)-5-fluoro-1,2,3,4-tetrahydro-isoquinolin-8-yl]-2-methyl-piperazin-1-yl}-ethanone]: the IC50 amounted to 5.7 nM.

On to `COc1ncc(N2CCc3c(C(F)(F)F)ccc(N4CCN(C(=O)Cn5nccn5)[C@H](C)C4)c3C2)cn1` [Example 26, 1-{(R)-4-[2-(2-Methoxy-pyrimidin-5-yl)-5-trifluoromethyl-1,2,3,4-tetrahydro-isoquinolin-8-yl]-2-methyl-piperazin-1-yl}-2-[1,2,3]triazol-2-yl-ethanone], for which the IC50 amounted to 98.5 nM.

With `O=C(Cn1cnc2cccnc21)N1CCN(c2cccc3c2CN(S(=O)(=O)Cc2ccccc2)CC3)CC1` [Example 142, 2-Imidazo[4,5-b]pyridin-3-yl-1-[4-(2-phenylmethanesulfonyl-1,2,3,4-tetrahydro-isoquinolin-8-yl)-piperazin-1-yl]-ethanone], the IC50 was 65.4 nM.

As for `C[C@@H]1CN(c2cccc3c2CN(C(=O)c2ccccc2)CC3)CCN1C(=O)Cn1cnc2cccnc21` [Example 72, 1-[(R)-4-(2-Benzoyl-1,2,3,4-tetrahydro-isoquinolin-8-yl)-2-methyl-piperazin-1-yl]-2-imidazo[4,5-b]pyridin-3-yl-ethanone], the IC50 was 92.2 nM.

For `Cc1ccn(CC(=O)N2CCN(c3ccc(C(F)(F)F)c4c3CN(c3nc(C(F)(F)F)cs3)CC4)C[C@H]2C)n1` [Example 44, 2-(3-Methyl-pyrazol-1-yl)-1-{(R)-2-methyl-4-[5-trifluoromethyl-2-(4-trifluoromethyl-thiazol-2-yl)-1,2,3,4-tetrahydro-isoquinolin-8-yl]-piperazin-1-yl}-ethanone], the IC50 turned out to be 12 nM.

Turning to `CCOc1ncc(N2CCc3c(F)ccc(N4CCN(C(=O)Cn5nc(C)nc5C)[C@H](C)C4)c3C2)cn1` [Example 131, 2-(3,5-Dimethyl-[1,2,4]triazol-1-yl)-1-{(R)-4-[2-(2-ethoxy-pyrimidin-5-yl)-5-fluoro-1,2,3,4-tetrahydro-isoquinolin-8-yl]-2-methyl-piperazin-1-yl}-ethanone], the IC50 was 24.3 nM.

For the compound `Cc1cc(C)n(CC(=O)N2CCN(c3ccc(C(F)(F)F)c4c3CN(c3ncc(Cn5cccn5)s3)CC4)C[C@H]2C)n1` [Example 1, 2-(3,5-Dimethyl-pyrazol-1-yl)-1-{(R)-2-methyl-4-[2-(5-pyrazol-1-ylmethyl-thiazol-2-yl)-5-trifluoromethyl-1,2,3,4-tetrahydro-isoquinolin-8-yl]-piperazin-1-yl}-ethanone], the IC50 was 4.47 nM.

With `Cc1ccnn1CC(=O)N1CCN(c2ccc(C(F)(F)F)c3c2CN(c2cnc(N(C)C)nc2)CC3)C[C@H]1C` [Example 52, 1-{(R)-4-[2-(2-Dimethylamino-pyrimidin-5-yl)-5-trifluoromethyl-1,2,3,4-tetrahydro-isoquinolin-8-yl]-2-methyl-piperazin-1-yl}-2-(5-methyl-pyrazol-1-yl)-ethanone], the IC50 is 4.1 nM.

As to `CCOc1ncc(N2CCc3c(C(F)(F)F)ccc(N4CCN(C(=O)Cn5cnc6cccnc65)[C@H](C)C4)c3C2)cn1` [Example 20, 1-{(R)-4-[2-(2-Ethoxy-pyrimidin-5-yl)-5-trifluoromethyl-1,2,3,4-tetrahydro-isoquinolin-8-yl]-2-methyl-piperazin-1-yl}-2-imidazo[4,5-b]pyridin-3-yl-ethanone], the IC50 turned out to be 7.77 nM.

`COc1ccccc1N1CCc2cccc(N3CCN(C(=O)Cn4cnc5cccnc54)[C@H](C)C3)c2C1` [Example 94, 2-Imidazo[4,5-b]pyridin-3-yl-1-{(R)-4-[2-(2-methoxy-phenyl)-1,2,3,4-tetrahydro-isoquinolin-8-yl]-2-methyl-piperazin-1-yl}-ethanone]: the IC50 was determined as 61.9 nM.

Consider `Cc1nc(C)n(CC(=O)N2CCN(c3cc(F)c(F)c4c3CN(c3cnc(C(F)(F)F)nc3)CC4)C[C@H]2C)n1` [Example 147, 1-{(R)-4-[5,6-Difluoro-2-(2-trifluoromethyl-pyrimidin-5-yl)-1,2,3,4-tetrahydro-isoquinolin-8-yl]-2-methyl-piperazin-1-yl}-2-(3,5-dimethyl-[1,2,4]triazol-1-yl)-ethanone], for which the IC50 worked out at 8.58 nM.
